In patent US7084239B1, “Cancer peptides of NY-ESO-1/CAG-3” (The United States of America as represented by the …, priority 1997, dated 2006):
“Also recorded” adds a separate entry of the source.

Tests used:
CTL clone 5 [1] = experiment: GM-CSF release by CTL clone 5 on peptide-pulsed EBV B cells; type: cell-based, human
Procedure: DNA transfection and GM-CSF assay were done as previously described (Wang, R. F., P. F. Robbins, Y. Kawakami, X. Q. Kang, and S. A. Rosenberg, 1995, J. Exp. Med. 181:799–804). Briefly, […] of DNA carrying a different fragment and 50 ng of the HLA-A31 DNA were mixed with 2 μl of lipofectamine in 100 μl of serum-free DMEM for 15–45 min. The DNA/lipofectamine mixture was then added to the COS-7 (5×10^4) cells and incubated overnight. The following day, cells were washed twice with DMEM medium. TIL586, CTL clone 5 or CTL clone 10 were added at a concentration of 5×10^4 cells/well in AIM-V medium containing 120 IU/ml of IL-2. After 18–24 h incubation, 100 μl of supernatant was collected and GM-CSF was measured in a standard ELISA assay (R+D Systems, Minneapolis, Minn.). For peptides, 586EBV, 1510EBV and T2 cells were incubated with peptides at 37° C. for 90 min, and then washed three times with AIM-V medium containing 120 IU/ml of IL-2. T cells were added and incubated for additional 18–24 h, 100 μl of supernatant was collected for GM-CSF assay. In some experiments, IFN-γ release assays were done using a standard ELISA kit (Endogen, Woburn, Mass.).
These peptides were pulsed onto HLA-A31-positive 1510EBV B cells and tested for their ability to stimulate cytokine release by CTL clone 5. […] CTL clone 10 recognized the same peptide as CTL clone 5 (data not shown). […] The reactivity of CTL clone 5 was undetectable when either the ESO9-54 or the ESO10-127 peptides were used at concentrations below 100 nM to sensitize EBV cells.

CTL clone 5 [2] = experiment: Chromium release cytolysis of peptide-pulsed target cells by CTL clone 5; type: cell-based, human
Procedure: FIGS. 5A–5C. Characterization of the 9-mer ESO9-54 and 10-mer ESO10-53 derived from the normal open reading frame. FIG. 5A. 586EBV or 1510EBV B cells were pulsed with ESO10-53 and ESO9-54 peptides at different concentrations for 120 min. After two washes with AIM-V medium with 120 IU IL-2, CTL clone 5 (1×10^5/well) was added and incubated for 18 to 24 h. GM-CSF release by CTL clone 5 was determined by ELISA. FIG. 5B. 586mel cells were lysed by CTL clone 5, but 397mel cells were not lysed by CTL clone 5 at different E:T ratios. FIG. 5C. 586EBV and 1510EBV B cells were labeled with chromium overnight. The ESO10-53 peptide was then pulsed on the chromium-labeled 586EBV, 1510EBV, and T2 cells for 120 min. An irrelevant peptide containing an HLA-A31 peptide-binding motif was also pulsed on chromium-labeled 586EBV, 1510EBV B cells as negative controls. After peptide incubation and two washes, cytolysis of target cells by CTL clone 5 was determined in a 4-h chromium release assay. T2 pulsed with the ESO10-53 peptide was used for the specificity control.
Cytolytic assay was done as previously described (Kawakami, Y et al., 1994, Proc. Natl. Acad. Sci. USA 91:6458–62). Briefly, the target cells were labeled with chromium for 90 min. After washing three times, the cells were incubated with peptides at a concentration of 1 μg/ml for 90 min. The cells were washed again, counted, and then mixed with TIL586 or CTL clone 5 at the indicated ratio of effector: targets (E:T). Chromium release was measured after 4 h incubation. The peptides were synthesized by a solid-phase method using a peptide synthesizer (Model AMS 422, Gilson Co., Inc., Worthington, Ohio). Some peptides were purified by HPLC and had greater than 98% in purity. […] Percentage of specific lysis was determined from the equation (A−B)/(C−B)×100 where A is lysis of 586EBV B cells by TIL586 or clone 5 in the presence of a peptide, B is spontaneous release from 586EBV B cells in presence of the same peptide but in the absence of effector cells, and C is the maximum chromium release. […]

## ASGPGGGAPR (listed as Homo sapiens) [ESO10-53]
CTL clone 5 [1]; 586EBV cells, peptide 0.1 μg/ml for 90 min, 5 × 10^4 CTL clone 5
  GM-CSF release by CTL clone 5, EXPT. 2 (586EBV): 1044 (SEQ. ID NO: 25)
CTL clone 5 [1]; 1510EBV cells incubated with peptide at 0.1 μg/ml for 90 min
  CTL clone 5 GM-CSF release: >2000 (SEQ. ID NO: 25) pg/ml
CTL clone 5 [1]; 1510EBV cells, peptide 0.1 μg/ml for 90 min, 5 × 10^4 CTL clone 5
  GM-CSF release by CTL clone 5, EXPT. 1 (1510EBV): 1097
CTL clone 5 [1]; at 10 μM peptide concentration (FIG. 5A)
  Plateau of GM-CSF release from CTL clone 5 in peptide titration: no plateau was reached
CTL clone 5 [1]; peptide pulsed onto HLA-A31-positive 1510EBV or 586EBV B cells
  Recognition by CTL clone 5 (cytokine release), in words: strongly recognized; also recorded: recognized
CTL clone 5 [1]; peptide titration on EBV B cells, GM-CSF release
  Peptide concentration at which CTL clone 5 reactivity is detectable: ≤ 10 nM
CTL clone 5 [2]; E:T ratio of 2.5:1, 4-h chromium release
  Lysis of peptide-incubated 586EBV or 1510EBV by CTL clone 5: 5–10%
CTL clone 5 [2]; E:T ratio of 40:1, 4-h chromium release
  Lysis of peptide-incubated 586EBV or 1510EBV by CTL clone 5: > 60%
CTL clone 5 [2]; T2 cells, specificity control (FIG. 5C)
  Lysis of HLA-A31-negative T2 cells pulsed with peptide by CTL clone 5: nor did it lyse
